We go through 61 compounds from article PMC9029089, “1,5-Disubstituted Acylated 2-Amino-4,5-dihydroimidazoles as a New Class of Retinoic Acid Receptor–Related Orphan Receptor (ROR) Inhibitors” (International Journal of Molecular Sciences, 2022).

In this test the target is T1, RORγ (Mus musculus, UniProt P51450).
T1 construct: mRORγ (Pro-261-end); expressed in transfected cells
T1 sequence (P51450 261-516 limits assumed): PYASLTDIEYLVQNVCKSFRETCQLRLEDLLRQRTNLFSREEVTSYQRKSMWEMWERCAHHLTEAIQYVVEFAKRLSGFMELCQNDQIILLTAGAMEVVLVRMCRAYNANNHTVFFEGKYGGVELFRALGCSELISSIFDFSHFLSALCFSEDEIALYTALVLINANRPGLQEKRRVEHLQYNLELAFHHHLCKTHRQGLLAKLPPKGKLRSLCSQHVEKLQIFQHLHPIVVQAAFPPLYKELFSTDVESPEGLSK
The experiment in a line: Gal4-RORγ-LBD UAS-luciferase reporter assay in TRex-CHO-K1 cells (doxycycline-stimulated). Type of test: cell-based. Particulars: individual controls 1295.201-307, 5 μg/ml, triplicate. An excerpt:
The Gal4-DBD-ROR-LBD fusion proteins were subcloned in the pcDNA4/TO expression vector (Thermo Scientific) and transfected into TRex-CHO-K1 cells (Thermo Scientific) for tetracycline-controlled expression of the corresponding ROR proteins. Transfected cells were selected with hygromycin and Zeocin and individual clones for each of the Gal4-RORγ, Gal4-RORα, and Gal4-RORβ cell lines were isolated using a standard serial dilution protocol. Clones with the highest doxycycline-dependent stimulation of luciferase activity were selected for all functional experiments.
For screening FIU libraries, cells were resuspended in Ham’s F-12 assay medium containing 2% charcoal-treated FBS and no selection drugs. […] Cells were allowed to attach for 2 h, followed by compound treatment and stimulation with 20 ng/mL doxycycline for an additional 16–20 h. Appropriate solvent controls, negative controls with no doxycycline, and blanks with no cells were included in every plate. Prior to measuring luciferase activity, 6 µL of 0.15 mg/mL resazurin (Cayman Chemical) in PBS were added and cells were incubated for 1 h at 37 °C. Fluorescence intensity was detected at 545 nm excitation/590 nm emission using a CLARIOstar reader (BMGLabtech) as a measure of cell viability, to identify any potential cytotoxic effect of test compounds and mixtures.
Luminescence was normalized by the fluorescence intensity and the percentage of inhibition was calculated with respect to control cells stimulated with doxycycline in the presence of solvent control (0.1% DMF). All primary screens with individual compounds were performed in triplicate with a final concentration of 5 µg/mL. […] IC50 values were calculated using GraphPrism (GraphPad software).
Take `Cc1cccc(CC(=O)NC2=NC[C@H](Cc3ccccc3)N2CCc2ccccc2)c1` [1295.275]: the “% Inhibition RORγ 5 μg/ml” value is 60.7%.
To `CC(C)CN1C(NC(=O)Cc2ccccc2)=NC[C@@H]1Cc1ccccc1` [1295.255] belongs -9.8%.
As to `O=C(Cc1ccccc1)NC1=NC[C@H](Cc2cccnc2)N1CCc1ccccc1` [1295.229], the “% Inhibition RORγ 5 μg/ml” value is -23.1%.
`CCOc1ccc(C[C@H]2CN=C(NC(=O)Cc3ccccc3)N2CCc2ccccc2)cc1` [1295.233]: the “% Inhibition RORγ 5 μg/ml” value came out at 31.0%.
For the compound `CCOc1ccc(C[C@@H]2CN=C(NC(=O)Cc3ccccc3)N2CCc2ccccc2)cc1` [1295.234], the “% Inhibition RORγ 5 μg/ml” value is on record as -7.7%.
To `COc1cccc(CC(=O)NC2=NC[C@H](Cc3ccccc3)N2CCc2ccccc2)c1` [1295.279] belongs 75.2%.
With `CC(C)C[C@H]1CN=C(NC(=O)Cc2ccccc2)N1CCc1ccccc1` [1295.205] the figure was 54.1%; with `CCC[C@@H]1CN=C(NC(=O)Cc2ccccc2)N1CCc1ccccc1` [1295.216], 24.5%; with `O=C(Cc1ccccc1)NC1=NC[C@H](Cc2ccccc2)N1CCc1ccc(F)cc1` [1295.240], 52.2%.
To `CC(C)Cc1ccc(C(C)CN2C(NC(=O)Cc3ccccc3)=NCC2Cc2ccccc2)cc1` (mixture of isomers) [1295.245] belongs 21.5%.
`O=C(Cc1ccccc1)NC1=NC[C@H](Cc2ccccc2)N1CC1CCCC1` [1295.266]: the “% Inhibition RORγ 5 μg/ml” value is recorded as 99.6%.
To `O=C(Cc1ccccc1)NC1=NC[C@H](Cc2ccccc2)N1CCc1ccccc1` [1295.202] belongs 0.0%.
Regarding `CC(C)(C)[C@H]1CN=C(NC(=O)Cc2ccccc2)N1CCc1ccccc1` [1295.231], the “% Inhibition RORγ 5 μg/ml” value was -31.5%.
With `COc1ccc(CC(=O)NC2=NC[C@H](Cc3ccccc3)N2CCc2ccccc2)cc1OC` [1295.287] the figure was 54.7%; with `CC(C)C(=O)NC1=NC[C@H](Cc2ccccc2)N1CCc1ccccc1` [1295.295], 31.3%.
With `Cc1cccc(CCN2C(NC(=O)Cc3ccccc3)=NC[C@@H]2Cc2ccccc2)c1` [1295.237] the figure was -4.8%; with `O=C(Cc1ccc(Br)cc1)NC1=NC[C@H](Cc2ccccc2)N1CCc1ccccc1` [1295.280], 42.0%.
With `COc1ccc(CC(=O)NC2=NC[C@H](Cc3ccccc3)N2CCc2ccccc2)cc1` [1295.281] the figure was 52.6%; with `O=C(Cc1ccccc1)NC1=NC[C@@H](c2ccccc2)N1CCc1ccccc1` [1295.220], -5.2%; with `O=C(CCCc1ccccc1)NC1=NC[C@H](Cc2ccccc2)N1CCc1ccccc1` [1295.290], 60.2%.
Turning to `CC(C)(C)CN1C(NC(=O)Cc2ccccc2)=NC[C@@H]1Cc1ccccc1` [1295.259], the “% Inhibition RORγ 5 μg/ml” value is -25.1%.
To `CCCC(=O)NC1=NC[C@H](Cc2ccccc2)N1CCc1ccccc1` [1295.293] belongs 37.4%.
To `O=C(Cc1ccc(-c2ccccc2)cc1)NC1=NC[C@H](Cc2ccccc2)N1CCc1ccccc1` [1295.285] belongs 11.1%.
To `O=C(Cc1cccc(Br)c1)NC1=NC[C@H](Cc2ccccc2)N1CCc1ccccc1` [1295.277] belongs 97.6%; to `CCOc1ccc(CC(=O)NC2=NC[C@H](Cc3ccccc3)N2CCc2ccccc2)cc1` [1295.282], -2.3%; to `O=C(Cc1ccccc1)NC1=NC[C@H](Cc2ccccc2)N1CCc1cc(C(F)(F)F)cc(C(F)(F)F)c1` [1295.246], 20.0%.
As for `CC(C)CCC(=O)NC1=NC[C@H](Cc2ccccc2)N1CCc1ccccc1` [1295.297], the “% Inhibition RORγ 5 μg/ml” value stood at 62.2%.
Regarding `O=C(Cc1ccccc1)NC1=NC[C@H](Cc2ccccc2)N1CC1CCCCCC1` [1295.263], the “% Inhibition RORγ 5 μg/ml” value is -8.4%.
With `CC(=O)NC1=NC[C@H](Cc2ccccc2)N1CCc1ccccc1` [1295.301] the figure was 15.4%; with `CCCCCCCN1C(NC(=O)Cc2ccccc2)=NC[C@@H]1Cc1ccccc1` [1295.254], 48.4%; with `C[C@H]1CN=C(NC(=O)Cc2ccccc2)N1CCc1ccccc1` [1295.201], -40.7%.
With `CCOc1ccc(CCN2C(NC(=O)Cc3ccccc3)=NCC2Cc2ccccc2)cc1` (stereo not shown) [1295.244] the figure was 5.9%; with `COc1ccc(CCCN2C(NC(=O)Cc3ccccc3)=NC[C@H]2Cc2ccccc2)cc1OC` [1295.247], 32.5%; with `Cc1cccc(C(=O)NC2=NC[C@H](Cc3ccccc3)N2CCc2ccccc2)c1` [1295.288], 59.9%.
To `O=C(Cc1ccccc1)NC1=NC[C@@H](Cc2ccc(F)cc2)N1CCc1ccccc1` [1295.228] belongs 31.3%; to `O=C(Cc1ccccc1)NC1=NC[C@H](Cc2ccc3ccccc3c2)N1CCc1ccccc1` [1295.221], 31.3%.
`O=C(NC1=NC[C@H](Cc2ccccc2)N1CCc1ccccc1)C1CCCC1` [1295.303]: the “% Inhibition RORγ 5 μg/ml” value worked out at 3.3%.
To `CC(C)C[C@@H]1CN=C(NC(=O)Cc2ccccc2)N1CCc1ccccc1` [1295.211] belongs 38.8%; to `O=C(Cc1ccccc1)NC1=NC[C@H](Cc2ccccc2)N1CC1CCCCC1` [1295.260], -10.7%.
Take `O=C(Cc1cccc(F)c1)NC1=NC[C@H](Cc2ccccc2)N1CCc1ccccc1` [1295.276]: the “% Inhibition RORγ 5 μg/ml” value stood at 104.2%.
To `C[C@@H]1CN=C(NC(=O)Cc2ccccc2)N1CCc1ccccc1` [1295.208] belongs -9.3%; to `O=C(Cc1ccccc1)NC1=NC[C@H](Cc2ccccc2)N1CC1CCC1` [1295.265], 53.1%; to `CC1(C)CN=C(NC(=O)Cc2ccccc2)N1CCc1ccccc1` [1295.214], 1.6%.
To `CC(C)CCN1C(NC(=O)Cc2ccccc2)=NC[C@@H]1Cc1ccccc1` [1295.257] belongs -28.5%.
To `O=C(Cc1ccccc1)NC1=NC[C@H](Cc2ccccc2)N1CCc1cccc(Br)c1` [1295.239] belongs 47.8%; to `O=C(Cc1ccccc1)NC1=NC[C@H](Cc2ccccc2)N1CCc1cccc(F)c1` [1295.238], 34.6%; to `CCCCN1C(NC(=O)Cc2ccccc2)=NC[C@@H]1Cc1ccccc1` [1295.253], -12.1%.
On to `CC(CCN1C(NC(=O)Cc2ccccc2)=NCC1Cc1ccccc1)c1ccccc1` (mixture of isomers) [1295.236], for which the “% Inhibition RORγ 5 μg/ml” value was found to be 26.8%.
To `CCC(C)C(=O)NC1=NCC(Cc2ccccc2)N1CCc1ccccc1` (mixture of isomers) [1295.296] belongs 41.7%; to `O=C(Cc1ccccc1)NC1=NC[C@@H](CC2CCCCC2)N1CCc1ccccc1` [1295.224], 9.6%.
`CC(C)[C@@H]1CN=C(NC(=O)Cc2ccccc2)N1CCc1ccccc1` [1295.212]: the “% Inhibition RORγ 5 μg/ml” value is recorded as 33.3%.
With `COc1ccc(CCN2C(NC(=O)Cc3ccccc3)=NC[C@@H]2Cc2ccccc2)cc1` [1295.243] the figure was 27.2%; with `O=C(Cc1ccccc1)NC1=NC[C@H](CC2CCCCC2)N1CCc1ccccc1` [1295.223], 3.4%; with `O=C(Cc1ccccc1)NC1=NC[C@H](Cc2ccccc2)N1CCc1ccccc1` [1295.291], 5.6%.
To `CCC(C)CN1C(NC(=O)Cc2ccccc2)=NCC1Cc1ccccc1` (mixture of isomers) [1295.256] belongs -8.1%; to `CCCCCCC(=O)NC1=NC[C@H](Cc2ccccc2)N1CCc1ccccc1` [1295.294], 44.3%.
With `O=C(NC1=NC[C@H](Cc2ccccc2)N1CCc1ccccc1)C1CCC1` [1295.302] the figure was 24.7%; with `O=C(Cc1ccc(F)cc1)NC1=NC[C@H](Cc2ccccc2)N1CCc1ccccc1` [1295.278], 29.8%.
As for `O=C(Cc1ccccc1)NC1=NC[C@@H](Cc2ccccc2)N1CCc1ccccc1` [1295.209], the “% Inhibition RORγ 5 μg/ml” value is on record as 46.8%.
To `O=C(Cc1ccccc1)NC1=NC[C@H](Cc2ccccc2)N1CCc1ccc(Br)cc1` [1295.242] belongs 67.1%.
With `CCCC[C@@H]1CN=C(NC(=O)Cc2ccccc2)N1CCc1ccccc1` [1295.218] the figure was -11.7%.
